From paper PMC10254649, “Design, Synthesis, and Biological Evaluation of Potent and Selective Inhibitors of Ataxia Telangiectasia Mutated and Rad3-Related (ATR) Kinase for the Efficient Treatment of Cancer” (Molecules, 2023)
Several values for one entry are separate records, joined by “and”; a condition that tells them apart may be missing. Equal entries are not always repeated.

Tests used:
A549 cells = assay: CCK-8 cell proliferation assay, A549; format: cell-based; settings: Homo sapiens, CCK-8, 72 h, ATM-normal cell line, three independent experiments, read-out: IC50 ± SD, A549
Protocol: (§1) A549, HCT116, NCI-H23, and LoVo cells were purchased from the Cell Resources Center of Shanghai Academy of Life Sciences, Shanghai, China. A549 cells were cultured in McCoy’s5A medium supplemented with 10% FBS (KeyGEN Biotech, Nanjing, China) and 1% penicillin/streptomycin (Gibco, 15070-063). HCT116 cells were cultured in IMDM medium supplemented with 10% FBS (KeyGEN Biotech, Nanjing, China) and 1% penicillin/streptomycin (Gibco, 15070-063). NCI-H23 cells were cultured in RPMI 1640 medium supplemented with 10% FBS (KeyGEN Biotech, Nanjing, China) and 1% penicillin/streptomycin (Gibco, 15070-063). LoVo cells were cultured in F12K medium supplemented with 10% FBS (KeyGEN Biotech, Nanjing, China) and 1% penicillin/streptomycin (Gibco, 15070-063). All cells were cultured in an incubator at 37 °C under a 5% CO2 atmosphere.
(§2) For the assay, 3000/well cells were planted into 96-well plates for 24 h and then treated with the indicated doses of drugs or controls for 72 h. Following the manufacturer’s instructions, cell proliferation/survival was measured using the CCK-8 (KeyGEN Biotech, Nanjing, China) assay and plotted via GraphPad 8.0.

HCT116 cells = assay: CCK-8 cell proliferation assay, HCT116; format: cell-based; settings: Homo sapiens, HCT-116; CCK-8, 72 h, ATM-normal cell line, three independent experiments; read-out: IC50 ± SD, HCT116
Protocol: as §1, §2

NCI-H23 cells = assay: CCK-8 cell proliferation assay, NCI-H23; format: cell-based; settings: Homo sapiens, CCK-8, 72 h, ATM-deficient cell line, three independent experiments, read-out: IC50 ± SD, NCI-H23
Protocol: as §1, §2

LoVo cells = assay: CCK-8 cell proliferation assay, LoVo; format: cell-based; settings: Homo sapiens, CCK-8, 72 h, ATM-deficient cell line, three independent experiments, read-out: IC50 ± SD, LoVo
Protocol: as §1, §2

LoVo xenografts = assay: LoVo tumor xenograft mouse model, antitumor efficacy and tolerability; format: in vivo
Protocol: Balb/c nude mice (18–22 g, female, 4 weeks old) were purchased from Hangzhou Medical College (Hangzhou, China). All mice were inoculated subcutaneously in the right flank with 5 × 10^6 LoVo cells to initiate tumor growth. When the mean tumor volume reached approximately 100 mm^3, all mice were randomly divided into 8 groups (n = 5 per group) based on body weight and volume. […] Cisplatin was administered twice a week at the indicated doses. Tumor size and animal weight were measured every 3 days. Tumor volume was calculated as tumor volume (cm^3) = (length × width^2)/2. Tumor inhibition rate (%) = (1 − mean tumor weight in the treatment group/mean tumor weight in the control group) × 100%. The results were obtained from 5 test mice (mean ± SD) and calculated using GraphPad 8.0 software.

ATR = ATR (Homo sapiens, UniProt Q13535); assay: In vitro inhibitory activity against the ATR enzyme; format: biochemical; settings: mean ± SD of two independent experiments; read-out: ATR IC50 ± SD
Sequence of ATR (Q13535 whole entry): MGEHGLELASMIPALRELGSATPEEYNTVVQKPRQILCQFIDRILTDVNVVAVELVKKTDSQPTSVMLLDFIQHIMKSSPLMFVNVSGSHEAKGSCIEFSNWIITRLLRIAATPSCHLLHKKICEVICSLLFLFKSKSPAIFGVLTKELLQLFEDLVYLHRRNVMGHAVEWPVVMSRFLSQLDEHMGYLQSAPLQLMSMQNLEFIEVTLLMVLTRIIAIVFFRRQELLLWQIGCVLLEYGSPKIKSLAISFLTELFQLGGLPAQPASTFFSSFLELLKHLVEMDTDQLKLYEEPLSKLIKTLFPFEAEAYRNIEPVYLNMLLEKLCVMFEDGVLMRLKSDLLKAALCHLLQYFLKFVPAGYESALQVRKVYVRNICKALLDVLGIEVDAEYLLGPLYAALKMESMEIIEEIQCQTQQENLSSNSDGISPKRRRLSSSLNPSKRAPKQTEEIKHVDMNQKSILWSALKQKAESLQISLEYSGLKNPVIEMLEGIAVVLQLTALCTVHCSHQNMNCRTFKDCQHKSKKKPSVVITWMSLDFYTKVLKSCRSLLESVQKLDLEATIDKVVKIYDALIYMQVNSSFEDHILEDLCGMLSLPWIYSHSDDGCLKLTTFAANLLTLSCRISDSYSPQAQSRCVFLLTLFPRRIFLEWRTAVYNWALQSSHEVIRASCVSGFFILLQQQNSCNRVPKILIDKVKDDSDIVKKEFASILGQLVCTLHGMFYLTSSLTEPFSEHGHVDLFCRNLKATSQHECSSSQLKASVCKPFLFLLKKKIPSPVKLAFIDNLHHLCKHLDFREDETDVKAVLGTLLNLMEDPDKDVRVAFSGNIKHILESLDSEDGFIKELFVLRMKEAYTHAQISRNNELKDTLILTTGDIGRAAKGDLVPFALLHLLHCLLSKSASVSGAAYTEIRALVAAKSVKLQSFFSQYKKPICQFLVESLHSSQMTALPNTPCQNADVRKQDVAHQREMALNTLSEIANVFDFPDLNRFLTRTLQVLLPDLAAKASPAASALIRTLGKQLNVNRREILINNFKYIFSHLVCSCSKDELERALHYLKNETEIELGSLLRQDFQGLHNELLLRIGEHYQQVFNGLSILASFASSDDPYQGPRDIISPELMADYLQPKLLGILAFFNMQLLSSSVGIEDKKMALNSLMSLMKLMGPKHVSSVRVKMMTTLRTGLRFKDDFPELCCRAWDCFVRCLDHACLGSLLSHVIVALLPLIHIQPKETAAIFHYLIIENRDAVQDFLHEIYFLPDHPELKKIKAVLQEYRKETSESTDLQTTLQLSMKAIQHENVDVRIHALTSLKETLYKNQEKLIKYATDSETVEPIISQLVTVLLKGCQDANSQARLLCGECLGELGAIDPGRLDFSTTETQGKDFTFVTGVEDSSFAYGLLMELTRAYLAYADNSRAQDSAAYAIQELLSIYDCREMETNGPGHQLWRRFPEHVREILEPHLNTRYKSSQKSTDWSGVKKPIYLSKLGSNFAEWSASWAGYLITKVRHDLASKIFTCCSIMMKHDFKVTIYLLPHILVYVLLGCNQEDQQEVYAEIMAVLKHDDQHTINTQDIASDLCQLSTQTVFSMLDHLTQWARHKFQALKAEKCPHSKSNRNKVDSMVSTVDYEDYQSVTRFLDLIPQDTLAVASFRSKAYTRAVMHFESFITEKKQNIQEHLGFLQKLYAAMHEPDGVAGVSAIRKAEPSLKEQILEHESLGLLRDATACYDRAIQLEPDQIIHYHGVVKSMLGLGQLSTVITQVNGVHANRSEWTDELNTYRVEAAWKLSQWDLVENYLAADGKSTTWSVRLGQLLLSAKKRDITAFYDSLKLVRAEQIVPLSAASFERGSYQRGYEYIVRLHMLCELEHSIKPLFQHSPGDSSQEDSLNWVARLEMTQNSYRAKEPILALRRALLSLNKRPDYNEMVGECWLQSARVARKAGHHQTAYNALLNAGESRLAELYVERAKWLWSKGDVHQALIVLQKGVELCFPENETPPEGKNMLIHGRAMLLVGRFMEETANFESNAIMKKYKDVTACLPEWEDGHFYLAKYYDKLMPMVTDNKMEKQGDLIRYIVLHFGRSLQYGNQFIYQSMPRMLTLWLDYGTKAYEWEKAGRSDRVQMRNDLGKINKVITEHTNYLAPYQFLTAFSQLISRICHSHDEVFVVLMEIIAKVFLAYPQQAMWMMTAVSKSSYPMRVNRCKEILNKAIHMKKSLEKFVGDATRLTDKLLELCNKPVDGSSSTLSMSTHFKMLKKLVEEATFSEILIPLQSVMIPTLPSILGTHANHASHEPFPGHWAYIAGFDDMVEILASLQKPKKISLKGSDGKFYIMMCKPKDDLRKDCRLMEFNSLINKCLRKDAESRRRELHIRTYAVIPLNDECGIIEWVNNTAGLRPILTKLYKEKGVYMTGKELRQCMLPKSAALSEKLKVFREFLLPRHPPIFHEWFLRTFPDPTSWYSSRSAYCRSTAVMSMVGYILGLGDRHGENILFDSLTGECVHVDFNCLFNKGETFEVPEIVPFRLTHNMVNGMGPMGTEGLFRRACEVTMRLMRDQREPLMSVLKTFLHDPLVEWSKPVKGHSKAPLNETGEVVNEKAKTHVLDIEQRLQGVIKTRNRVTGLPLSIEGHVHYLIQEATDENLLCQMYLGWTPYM
Sequence of ATR (Q8WXE1 whole entry partner): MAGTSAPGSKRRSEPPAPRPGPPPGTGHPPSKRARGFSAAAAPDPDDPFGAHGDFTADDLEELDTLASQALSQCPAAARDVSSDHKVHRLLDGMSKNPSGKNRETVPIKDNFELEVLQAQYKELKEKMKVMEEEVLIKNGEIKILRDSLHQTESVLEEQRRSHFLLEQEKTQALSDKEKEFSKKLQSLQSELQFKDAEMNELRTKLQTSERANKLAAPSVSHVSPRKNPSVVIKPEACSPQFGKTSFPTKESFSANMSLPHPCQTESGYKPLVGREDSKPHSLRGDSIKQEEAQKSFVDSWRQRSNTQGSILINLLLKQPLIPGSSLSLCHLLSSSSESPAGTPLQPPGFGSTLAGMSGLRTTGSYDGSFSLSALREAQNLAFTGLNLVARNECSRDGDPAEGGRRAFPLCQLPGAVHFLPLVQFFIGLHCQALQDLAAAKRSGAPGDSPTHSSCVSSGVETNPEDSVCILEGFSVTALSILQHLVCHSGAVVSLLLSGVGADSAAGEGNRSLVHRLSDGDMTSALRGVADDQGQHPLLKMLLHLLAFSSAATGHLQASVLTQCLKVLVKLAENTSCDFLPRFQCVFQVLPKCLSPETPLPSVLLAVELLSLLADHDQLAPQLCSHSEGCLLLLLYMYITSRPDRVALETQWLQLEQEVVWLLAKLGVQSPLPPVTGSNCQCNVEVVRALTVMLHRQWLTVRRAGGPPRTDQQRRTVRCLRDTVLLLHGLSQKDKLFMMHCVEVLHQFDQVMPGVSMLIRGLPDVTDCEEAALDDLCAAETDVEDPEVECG

| Compound | IC50 (ATR) | melting point | also measured |
| --- | --- | --- | --- |
| C[C@@H]1COCCN1c1cc(C2([S@](C)(=N)=O)CC2)nc(-c2cc[nH]c3nccc2-3)n1 [AZD6738, ceralasertib, reference compound] |  |  | IC50 (A549 cells): 6600 ± 240 nM; IC50 (HCT116 cells): 4320 ± 160 nM; IC50 (NCI-H23 cells): 500 ± 60 nM; IC50 (LoVo cells): 410 ± 10 nM; tumor growth inhibition (TGI) (LoVo xenografts; 25 mg/kg twice daily, days 1-18, single agent, AZD6738 orally, ZH-12 intraperitoneally): 42.5% |
| CCS(=O)(=O)N1CCc2c(nc(-c3ccnc4[nH]ccc34)nc2N2CCOC[C@H]2C)C1 [ZH-1, (R)-4-(7-(ethylsulfonyl)-2-(1H-pyrrolo[2,3-b]pyridin-4-yl)-5,6,7,8-tetrahydropyrido[3,4-d]pyrimidin-4-yl)-3-methylmorpholine] | 53.3 ± 1.08 nM |  |  |
| C[C@@H]1COCCN1c1nc(-c2ccnc3[nH]ccc23)nc2c1CCN(C(=O)C1CCC(=O)CC1)C2 [ZH-10, (R)-4-(4-(3-methylmorpholino)-2-(1H-pyrrolo[2,3-b]pyridinedin-4-yl)-5,6,7,8-tetrahydropyrido[3,4-d]pyrimidine-7-carbonyl)cyclohexan-1-one] | 27.5 nM and 11.9 nM | 240 to 242 °C |  |
| COCC(=O)N1CCc2c(nc(-c3ccnc4[nH]ccc34)nc2N2CCOC[C@H]2C)C1 [ZH-7, (R)-2-methoxy-1-(4-(3-methylmorpholino)-2-(1H-pyrrolo[2,3-b]pyridinedin-4-yl)-5,8-dihydropyrido[3,4-d]pyrimidin-7(6H)-yl)ethan-1-one] | 9.23 ± 0.16 nM | 294 to 296 °C | IC50 (A549 cells): 25600 ± 1620 nM; IC50 (HCT116 cells): 6020 ± 260 nM; IC50 (NCI-H23 cells): 6770 ± 430 nM; IC50 (LoVo cells): 5710 ± 810 nM |
| CCNC(=O)N1CCc2c(nc(-c3ccnc4[nH]ccc34)nc2N2CCOC[C@H]2C)C1 [ZH-11, (R)-N-ethyl-4-(3-methylmorpholino)-2-(1H-pyrrolo[2,3-b]pyridin-4-yl)-5,8-dihydropyrido[3,4-d]pyrimidine-7(6H)-carboxamide] | 11.4 ± 0.25 nM |  |  |
| CCNC(=O)N1CCc2c(nc(-c3cccc4[nH]ccc34)nc2N2CCOC[C@H]2C)C1 [ZH-14, (R)-N-ethyl-2-(1H-indol-4-yl)-4-(3-methylmorpholino)-5,8-dihydropyrido[3,4-d]pyrimidine-7(6H)-carboxamide] | 14.9 ± 0.29 nM |  |  |
| N.N.[Cl][Pt][Cl] [cisplatin, reference compound] |  |  | tumor growth inhibition (TGI) (LoVo xenografts; cisplatin 6 mg/kg twice a week, alone): 26.1% |
| CCCC(=O)N1CCc2c(nc(-c3ccnc4[nH]ccc34)nc2N2CCOC[C@H]2C)C1 [ZH-3, (R)-1-(4-(3-methylmorpholino)-2-(1H-pyrrolo[2,3-b]pyridin-4-yl)-5,8-dihydropyrido[3,4-d]pyrimidin-7(6H)-yl)butan-1-one] | 42.5 ± 1.05 nM |  |  |
| CC(C)CC(=O)N1CCc2c(nc(-c3ccnc4[nH]ccc34)nc2N2CCOC[C@H]2C)C1 [ZH-4, (R)-3-methyl-1-(4-(3-methylmorpholino)-2-(1H-pyrrolo[2,3-b]pyridin-4-yl)-5,8-dihydropyrido[3,4-d]pyrimidin-7(6H)-yl)butan-1-one] | 7.31 ± 0.16 nM |  | IC50 (A549 cells): 20800 ± 1210 nM; IC50 (HCT116 cells): 5170 ± 580 nM; IC50 (NCI-H23 cells): 1740 ± 50 nM; IC50 (LoVo cells): 18000 ± 1690 nM |
| C[C@@H]1COCCN1c1nc(-c2ccnc3[nH]ccc23)nc2c1CCN(C(=O)C1CCOCC1)C2 [ZH-8, (R)-(4-(3-methylmorpholino)-2-(1H-pyrrolo[2,3-b]pyridin-4-yl)-5,8-dihydropyrido[3,4-d]pyrimidin-7(6H)-yl)(tetrahydro-2H-pyran-4-yl)methanone] | 27.5 ± 1.04 nM |  |  |
| C[C@@H]1COCCN1c1nc(-c2ccnc3[nH]ccc23)nc2c1CCN(C(=O)C1CC(=O)C1)C2 [ZH-9, (R)-3-(4-(3-methylmorpholino)-2-(1H-pyrrolo[2,3-b]pyridinedin-4-yl)-5,6,7,8-tetrahydropyrido[3,4-d]pyrimidine-7-carbonyl)cyclobutan-1-one] | 16 ± 1.08 nM | 222 to 224 °C |  |
| C[C@@H]1COCCN1c1nc(-c2ccnc3[nH]ccc23)nc2c1CCN(C(=O)CC#N)C2 [ZH-5, (R)-3-(4-(3-methylmorpholino)-2-(1H-pyrrolo[2,3-b]pyridinedin-4-yl)-5,8-dihydropyrido[3,4-d]pyrimidin-7(6H)-yl)-3-oxopropanenitrile] | 11.3 nM and 10.8 nM | > 250 °C |  |
| C[C@@H]1COCCN1c1nc(-c2cccc3[nH]ccc23)nc2c1CCN(C(=O)C1CCOCC1)C2 [ZH-13, (R)-(2-(1H-indol-4-yl)-4-(3-methylmorpholino)-5,8-dihydropyrido[3,4-d]pyrimidin-7(6H)-yl)(tetrahydro-2H-pyran-4-yl)methanone] | 214.66 ± 0.04 nM |  |  |
| CCC(=O)N1CCc2c(nc(-c3ccnc4[nH]ccc34)nc2N2CCOC[C@H]2C)C1 [ZH-2, (R)-1-(4-(3-methylmorpholino)-2-(1H-pyrrolo[2,3-b]pyridin-4-yl)-5,8-dihydropyrido[3,4-d]pyrimidin-7(6H)-yl)propan-1-one] | 41.6 ± 1.38 nM |  |  |
| C[C@@H]1COCCN1c1nc(-c2ccnc3[nH]ccc23)nc2c1CCN(C(=O)CO)C2 [ZH-6, (R)-2-hydroxy-1-(4-(3-methylmorpholino)-2-(1H-pyrrolo[2,3-b]pyridinedin-4-yl)-5,8-dihydropyrido[3,4-d]pyrimidin-7(6H)-yl)ethan-1-one] | 34.03 ± 0.27 nM | 174 to 176 °C |  |
